In US20130207041A1, “FLUORESCENT COMPOUND, MAKING METHOD, AND FLUORESCENT RESIN COMPOSITION” (Shin-Etsu Chemical Co., Ltd., priority 2012, published 2013):
≈ marks a conversion by molar mass, not a printed value.

What was measured:
[1] = Solubility in transparent silicone resin SIM-360 matrix; conditions: room temperature, stirring; judged dissolved when solution became transparent
Method: With stirring at room temperature, transparent silicone resin SIM-360 matrix (Shin-Etsu Chemical Co., Ltd.) was added in incremental amounts.

[2] = in ethanol

SMILES | solubility in silicone resin SIM-360 matrix [1] | maximum absorption peak wavelength [2] | molar absorption coefficient [2]
C[Si](C)(C)O[Si](C)(CCCC1(CCC[Si](C)(O[Si](C)(C)C)O[Si](C)(C)C)c2cc(-c3ccc(-c4ccccc4)cc3)ccc2-c2ccc(-c3ccc(-c4ccccc4)cc3)cc21)O[Si](C)(C)C [Compound #2, 2,7-bis(biphenyl)-9,9′-di-[3-(1-trimethylsiloxy-1,3,3,3-tetramethyldisiloxan-1-yl)propyl]-fluorene] | 1.3 mM (≈ 1290 µg/mL) | 338 nm | 7.07×10^4
C[Si](C)(C)O[Si](C)(C)O[Si](C)(C)O[Si](C)(C)O[Si](C)(C)CCCC1(CCC[Si](C)(C)O[Si](C)(C)O[Si](C)(C)O[Si](C)(C)O[Si](C)(C)C)c2cc(-c3ccc(-c4ccccc4)cc3)ccc2-c2ccc(-c3ccc(-c4ccccc4)cc3)cc21 [Compound #4, 2,7-bis(biphenyl)-9,9′-di-[3-(undecamethylpentasiloxan-1-yl)propyl]fluorene] | 6.0 mM (≈ 7750 µg/mL) | 338 nm | 6.81×10^4
CCCCCCC1(CCCCCC)c2cc(-c3ccc(-c4ccccc4)cc3)ccc2-c2ccc(-c3ccc(-c4ccccc4)cc3)cc21 [Compound #5, 2,7-Bis(Biphenyl)-9,9′-Dihexylfluorene, reference compound] | could not be dissolved | – | –
